These are literature values, as cited in patent US20260325482A1, “TASIMELTEON FOR USE IN THE TREATMENT OF DELAYED SLEEP-WAKE PHASE DISORDER” (VANDA PHARMACEUTICALS INC., priority 2023, published 2026).

For data set [1], the system named is MT2 receptor. Conditions: MT2 receptor vs MT1 receptor.
For data set [2] the following is noted: high-calorie/high-fat meals.
For data set [3] the following is noted: healthy volunteers, participants with primary insomnia, Non-24, and pediatric participants with SMS.
Data set [4] relates to Non-24. To be noted: daily dose of 20 mg administered once, before bedtime.
Data set [5] has as its system SMS. To be noted: daily dose of 0.7 mg/kg once daily; patients having a body mass of 28 kg or less.

As for `CCC(=O)NC[C@@H]1C[C@H]1c1cccc2c1CCO2` [tasimelteon], the “affinity for the MT2 receptor compared with the MT1 receptor” value in data set [1] is reported as “greater affinity for the MT2 receptor than the MT1 receptor”. In addition, the linearity of pharmacokinetics entry (doses ranging from 3 mg to 300 mg) is given as “linear”. In addition, the absolute bioavailability (oral) is given as 38%. In data set [2], the Cmax with food result is on record as “significantly lower”, the Tmax with food result is reported as “delay” and the “extent of absorption with food” value is “not significantly affected”. Further, the safety and tolerability result in data set [3] is “safe and well-tolerated”. Also, the “effectiveness in treating Non-24” value in data set [4] was “effective”. Besides, the “effectiveness in treating SMS” value in data set [5] is given as “effective”.
